The target in one assay is T1, Lp-PLA2 in rabbit serum (Oryctolagus cuniculus, UniProt G1SE06).
T1 construct: from tissue; host or cells: rabbit serum
T1 sequence (G1SE06 22-423): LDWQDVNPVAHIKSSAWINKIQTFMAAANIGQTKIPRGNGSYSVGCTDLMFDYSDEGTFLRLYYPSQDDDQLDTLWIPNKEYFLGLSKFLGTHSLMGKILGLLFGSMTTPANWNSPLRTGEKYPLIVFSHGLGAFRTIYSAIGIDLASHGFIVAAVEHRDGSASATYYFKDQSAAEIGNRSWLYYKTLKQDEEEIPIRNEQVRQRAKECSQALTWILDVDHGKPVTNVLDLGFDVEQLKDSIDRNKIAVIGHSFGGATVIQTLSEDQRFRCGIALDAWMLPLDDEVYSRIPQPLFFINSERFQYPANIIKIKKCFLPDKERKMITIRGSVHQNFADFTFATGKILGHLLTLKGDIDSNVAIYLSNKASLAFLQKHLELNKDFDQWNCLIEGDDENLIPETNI
Description: In vitro inhibitory activity towards the enzyme Lp-PLA2 in rabbit serum, [3H]PAF substrate. It counts as biochemical. The method, then: (§1) The activities of compounds were measured using [^3H] labeled platelet activating factor ([^3H]PAF, Perkinelmer, Lot NET910) as the substrate. The reaction was carried out in a system containing 50 mmol/L HEPES and 150 mmol/L NaCl (pH 7.4) in a total volume of 200 μl. First, 10 μL rabbit serum and 10 μl DMSO solution of the test compound were added to the system and preincubated for 10 min at 37° C. Then 20 nM [^3H]PAF was added as listed in table 1 to start the reaction and incubated for a further 10 min at 37° C. After that, 600 μl of CHCl3/MeOH (2:1) was added and the resulting mixture was vortex mixed and the reaction was stopped. After settled for a while, the mixture was centrifugated at 12000×g for 15 min. The supernatant was transferred to a new tube and 200 μl of CHCl3 was added. The mixture was mixed by vortexing and then settled or centrifugated for 2 min. A 100 μl portion of the supernatant was then collected for radioactivity intensity measurement.
The inhibition rate was determined by the following equation:
Inhibitory rate (%)=1−(DPMcompound tube−DPMblank tube)/(DPMcontrol tube−DPMblank tube)*100%
(Note: DPM is radioactivity intensity unit.)

A further assay addresses T2, Lp-PLA2 in human serum (Homo sapiens, UniProt Q13093).
T2 construct: from tissue
T2 sequence (Q13093 22-441): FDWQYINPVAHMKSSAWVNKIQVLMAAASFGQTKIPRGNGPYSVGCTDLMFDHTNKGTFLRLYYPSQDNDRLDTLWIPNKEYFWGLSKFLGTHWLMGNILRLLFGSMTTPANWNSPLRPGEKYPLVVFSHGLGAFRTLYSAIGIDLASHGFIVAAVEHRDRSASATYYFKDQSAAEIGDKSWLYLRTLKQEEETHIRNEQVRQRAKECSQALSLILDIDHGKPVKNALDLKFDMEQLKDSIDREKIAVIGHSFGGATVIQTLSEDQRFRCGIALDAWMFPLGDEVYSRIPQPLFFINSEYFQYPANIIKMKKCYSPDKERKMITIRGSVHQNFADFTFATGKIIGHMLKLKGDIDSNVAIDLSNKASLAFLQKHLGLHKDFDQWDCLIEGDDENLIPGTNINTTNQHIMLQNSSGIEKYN
Description: In vitro inhibitory activity towards the enzyme Lp-PLA2 in human serum, [3H]PAF substrate. Format: biochemical. The method, then: as §1, with “mmol/l” for “mmol/L”, “human plasma” for “rabbit serum”, “was” for “was vortex”, “with vortex.” for “and the reaction was stopped.”, “added and mixed by vortexing.” for “added.”, “was” for “was mixed by vortexing and then”

Setting [1] is: 100 nM, rabbit serum, read-out: inhibition, %.
[2] abbreviates: 100 nM, read-out: inhibitory rate towards the rabbit serum derived Lp-PLA2 enzyme.
Where [3] appears, read: 10 nM, human serum, read-out: inhibition, %.
The mark [4] stands for this setting: 10 nM, read-out: inhibitory rate towards the human serum derived Lp-PLA2 enzyme.

Like-named read-outs stand apart in the source and are kept apart here.

The source of these data is US20140171431A1, “AZOLE HETEROCYCLIC COMPOUND, PREPARATION METHOD, PHARMACEUTICAL COMPOSITION AND USE” (priority 2011, published 2014).

For the compound `CCN1CCCC1CNCc1nnc(Cn2c(SCc3ccc(F)cc3)nc(=O)c3c2CCC3)n1Cc1ccc(-c2ccc(C(F)(F)F)cc2)cc1` (racemic) [Example 83, (±)-1-((5-(((1-ethylpyrrolidin-2-yl)methylamino)methyl)-4-((4′-(trifluoromethyl)biphenyl-4-yl)methyl)-4H-1,2,4-triazol-3-yl)methyl)-2-(4-fluorobenzylthio)-6,7-dihydro-1H-cyclopenta[d]pyrimidin-4(5H)-one], the inhibition at 0.1 µM at Lp-PLA2 in rabbit serum (setting [1]) is 93%; on Lp-PLA2 in rabbit serum (setting [2]), over 90%; at Lp-PLA2 in human serum (100 nM, human serum) it was 95%. Further, the inhibition at 0.01 µM at Lp-PLA2 in human serum (setting [3]) was 81%; on Lp-PLA2 in human serum (setting [4]) it was over 80%.

Regarding `CCN(CC)Cc1cnc(Cn2c(SCc3ccc(F)cc3)nc(=O)c3c2CCC3)n1Cc1ccc(-c2ccc(C(F)(F)F)cc2)cc1` [Example 42, 1-((5-((diethylamino)methyl)-1-((4′-(trifluoromethyl)biphenyl-4-yl)methyl)-1H-imidazol-2-yl)methyl)-2-(4-fluorobenzylthio)-6,7-dihydro-1H-cyclopenta[d]pyrimidin-4(5H)-one], the inhibition at 0.1 µM on Lp-PLA2 in rabbit serum (setting [1]) is 88.3%; against Lp-PLA2 in human serum (100 nM, human serum), 92%. The compound further yielded an inhibition at 1 µM against Lp-PLA2 in rabbit serum (rabbit serum) of 97.7%. The inhibition at 0.01 µM on Lp-PLA2 in human serum (setting [3]) is 75%.

As for `O=c1nc(SCc2ccc(F)cc2)n(Cc2ncc(CN3CCCC3)n2Cc2ccc(-c3ccc(C(F)(F)F)cc3)cc2)c2c1CCC2` [Example 43, 2-(4-fluorobenzylthio)-1-((5-(pyrrolidin-1-ylmethyl)-1-((4′-(trifluoromethyl)biphenyl-4-yl)methyl)-1H-imidazol-2-yl)methyl)-6,7-dihydro-1H-cyclopenta[d]pyrimidin-4(5H)-one], the inhibition at 0.1 µM was 78.6% at Lp-PLA2 in rabbit serum (setting [1]) and 92% at Lp-PLA2 in human serum (100 nM, human serum). Besides, at Lp-PLA2 in human serum (setting [3]), the inhibition at 0.01 µM stood at 67%.

For `CN(Cc1ccc(F)cc1)Cc1cnc(Cn2c(SCc3ccc(F)cc3)nc(=O)c3c2CCC3)n1Cc1ccc(-c2ccc(C(F)(F)F)cc2)cc1` [Example 44], the inhibition at 0.1 µM on Lp-PLA2 in rabbit serum (setting [1]) is 89.1%; against Lp-PLA2 in human serum (100 nM, human serum), 95%. For the same compound, the inhibition at 0.01 µM on Lp-PLA2 in human serum (setting [3]) amounted to 69%.

In the case of `O=c1nc(SCc2ccc(F)cc2)n(Cc2ncc(CN3CCN(Cc4ccccc4)CC3)n2Cc2ccc(-c3ccc(C(F)(F)F)cc3)cc2)c2c1CCC2` [Example 45, 1-((5-((4-benzylpiperazin-1-yl)methyl)-1-((4′-(trifluoromethyl)biphenyl-4-yl)methyl)-1H-imidazol-2-yl)methyl)-2-(4-fluorobenzylthio)-6,7-dihydro-1H-cyclopenta[d]pyrimidin-4(5H)-one], the inhibition at 0.1 µM on Lp-PLA2 in rabbit serum (setting [1]) was found to be 87%; on Lp-PLA2 in human serum (100 nM, human serum) it was 90%. Further, the inhibition at 0.01 µM at Lp-PLA2 in human serum (setting [3]) amounted to 56%.

As to `CN(C)Cc1cnc(Cn2c(SCc3ccc(F)cc3)nc(=O)c3c2CCC3)n1Cc1ccc(-c2ccc(C(F)(F)F)cc2)cc1` [Example 46, 1-((5-((dimethylamino)methyl)-1-((4′-(trifluoromethyl)biphenyl-4-yl)methyl)-1H-imidazol-2-yl)methyl)-2-(4-fluorobenzylthio)-6,7-dihydro-1H-cyclopenta[d]pyrimidin-4(5H)-one], the inhibition at 0.1 µM was 87.1% at Lp-PLA2 in rabbit serum (setting [1]) and 89% against Lp-PLA2 in human serum (100 nM, human serum). Further, the inhibition at 1 µM against Lp-PLA2 in rabbit serum (rabbit serum) was 97.2%. Besides, the inhibition at 0.01 µM on Lp-PLA2 in human serum (setting [3]) turned out to be 75%.

Take `C[N+](C)(Cc1ccc(F)cc1)Cc1cnc(Cn2c(SCc3ccc(F)cc3)nc(=O)c3c2CCC3)n1Cc1ccc(-c2ccc(C(F)(F)F)cc2)cc1` [Example 47, N-(4-fluorobenzyl)-1-(2-((2-(4-fluorobenzylthio)-4-oxo-4,5,6,7-tetrahydro-1H-cyclopenta[d]pyrimidin-1-yl)methyl)-1-((4′-(trifluoromethyl)biphenyl-4-yl)methyl)-1H-imidazol-5-yl)-N,N-dimethylmethanaminium bromide]: the inhibition at 0.1 µM on Lp-PLA2 in rabbit serum (setting [1]) was 96.9%; on Lp-PLA2 in rabbit serum (setting [2]), over 90%; against Lp-PLA2 in human serum (100 nM, human serum), 99%. Besides, the inhibition at 1 µM against Lp-PLA2 in rabbit serum (rabbit serum) is 98.6%. In addition, the values for the inhibition at 0.01 µM at Lp-PLA2 in human serum (setting [3]) and at Lp-PLA2 in human serum (setting [4]) were 93% and over 80%, respectively.

As for `O=c1nc(SCc2ccc(F)cc2)n(Cc2ncc(C[N+]3(Cc4ccc(F)cc4)CCCC3)n2Cc2ccc(-c3ccc(C(F)(F)F)cc3)cc2)c2c1CCC2` [Example 49, 1-(4-fluorobenzyl)-1-(2-((2-(4-fluorobenzylthio)-4-oxo-4,5,6,7-tetrahydro-1H-cyclopenta[d]pyrimidin-1-yl)methyl)-1-((4′-(trifluoromethyl)biphenyl-4-yl)methyl)-1H-imidazol-5-yl)methyl)pyrrolidinium bromide], the results for the inhibition at 0.01 µM on Lp-PLA2 in human serum (setting [3]) and on Lp-PLA2 in human serum (setting [4]) were 97% and over 80%, respectively. Further, on Lp-PLA2 in human serum (100 nM, human serum), the inhibition at 0.1 µM worked out at 98%.

Take `CN(C)C(=O)c1cnc(Cn2c(SCc3ccc(F)cc3)nc(=O)c3c2CCC3)n1Cc1ccc(-c2ccc(C(F)(F)F)cc2)cc1` [Example 52, 2-((2-(4-fluorobenzylthio)-4-oxo-4,5,6,7-tetrahydro-1H-cyclopenta[d]pyrimidin-1-yl)methyl)-N,N-dimethyl-1-((4′-(trifluoromethyl)biphenyl-4-yl)methyl)-1H-imid azole-5-carboxamide]: the inhibition at 0.1 µM was 90% at Lp-PLA2 in rabbit serum (setting [1]); over 90% on Lp-PLA2 in rabbit serum (setting [2]); 99% on Lp-PLA2 in human serum (100 nM, human serum). For the same compound, the inhibition at 0.01 µM on Lp-PLA2 in human serum (setting [3]) was 97%; on Lp-PLA2 in human serum (setting [4]), over 80%.

With `O=c1nc(SCc2ccc(F)cc2)n(Cc2ncn(Cc3ccc(-c4ccc(C(F)(F)F)cc4)cc3)n2)c2c1CCC2` [Example 61, 2-(4-fluorobenzylthio)-1-((1-((4′-(trifluoromethyl)biphenyl-4-yl)methyl)-1H-1,2,4-triazol-3-yl)methyl)-6,7-dihydro-1H-cyclopenta[d]pyrimidin-4(5H)-one], the inhibition at 0.1 µM at Lp-PLA2 in rabbit serum (setting [1]) turned out to be 61%; against Lp-PLA2 in human serum (100 nM, human serum), 91%. For the same compound, the inhibition at 0.01 µM on Lp-PLA2 in human serum (setting [3]) is 59%.

Turning to `COC(=O)CN(C)Cc1nnc(Cn2c(SCc3ccc(F)cc3)nc(=O)c3c2CCC3)n1Cc1ccc(-c2ccc(C(F)(F)F)cc2)cc1` [Example 62, methyl 2-(((5-((2-(4-fluorobenzylthio)-4-oxo-4,5,6,7-tetrahydro-1H-cyclopenta[d]pyrimidin-1-yl)methyl)-4-((4′-(trifluoromethyl)biphenyl-4-yl)methyl)-4H-1,2,4-triazol-3-yl)methyl)(methyl)amino)acetate], the “inhibition, %” value against Lp-PLA2 in rabbit serum (100 nM, rabbit serum, 0.1 µM) stood at 73.8%; at Lp-PLA2 in human serum (10 nM, human serum, 0.01 µM) it was 76%; on Lp-PLA2 in human serum (100 nM, human serum, 0.1 µM), 94%. Further, the inhibition at 0.1 µM at Lp-PLA2 in rabbit serum (setting [1]) came to 81.9%; on Lp-PLA2 in human serum (100 nM, human serum) it was 96%. In addition, at Lp-PLA2 in human serum (setting [3]), the inhibition at 0.01 µM was determined as 83%.

On to `Cc1nnc(Cn2c(SCc3ccc(F)cc3)nc(=O)c3c2CCC3)n1Cc1ccc(-c2ccc(C(F)(F)F)cc2)cc1` [Example 64, 2-(4-fluorobenzylthio)-1-((5-methyl-4-((4′-(trifluoromethyl)biphenyl-4-yl)methyl)-4H-1,2,4-triazol-3-yl)methyl)-6,7-dihydro-1H-cyclopenta[d]pyrimidin-4(5H)-one], for which the inhibition at 0.1 µM on Lp-PLA2 in rabbit serum (setting [1]) was found to be 78.9%; against Lp-PLA2 in human serum (100 nM, human serum), 93%. Besides, at Lp-PLA2 in human serum (setting [3]), the inhibition at 0.01 µM was 73%.
